The values that follow come from patent US20260337156A1, “SOLUBILIZING COMPOUNDS” (Vivesto AB, priority 2022, published 2026).

This series in a line: drug loading capacity (ratio of amount API:(API+excipient)). The format is physicochemical. The procedure:
The solution was evaporated to dryness in a rotary evaporator. Final drying was performed in a desiccator to remove residual solvent. Hydration of the dried film was performed by adding water for injection (1.2 mL). […] Drug loading capacity is defined as the ratio of amount API:(API+excipient).
20 mg of example 1 was dispensed into a 25 mL round bottom flask and dissolved in methanol (3 mL). 800 μL of a stock solution of docetaxel in methanol (5 mg/mL) was added. The solution was evaporated to dryness in a rotary evaporator. Final drying was performed in a desiccator to remove residual solvent. Hydration of the dried film was performed by adding water for injection (1.0 mL) to a concentration of 4 mg/mL of docetaxel. The 4 mg/mL concentration was further diluted with 0.9% sodium chloride according to the table below.
11 mg of example 1 was dispensed into a 25 mL round bottom flask and dissolved in methanol (2 mL). 740 μL of a stock solution of docetaxel in methanol (4.96 mg/mL) was added. The solution was evaporated to dryness in a rotary evaporator. Final drying was performed in a desiccator to remove residual solvent.
4.5 mg of compound 1 was dispensed into a 25 mL round bottom flask and dissolved in methanol (2 mL). 1500 μL of a stock solution of cabazitaxel in methanol (1.00 mg/mL) was added. The solution was evaporated to dryness in a rotary evaporator. Final drying was performed in a desiccator to remove residual solvent.
4.5 mg of compound 1 was dispensed into a 25 mL round bottom flask and dissolved in methanol (2 mL). 1500 μL of a stock solution of cyclosporin in methanol (1.00 mg/mL) was added. The solution was evaporated to dryness in a rotary evaporator. Final drying was performed in a desiccator to remove residual solvent.
4.0 mg of compound 2 was dispensed into a 25 mL round bottom flask and dissolved in methanol (3 mL). 250 μL of a stock solution of docetaxel in methanol (5 mg/mL) was added. The solution was evaporated to dryness in a rotary evaporator. Final drying was performed in a desiccator to remove residual solvent. Hydration of the dried film was performed by adding water for injection (1.25 mL). […]
4.5 mg of compound 3 was dispensed into a 25 mL round bottom flask and dissolved in methanol (3 mL). 305 μL of a stock solution of docetaxel in methanol (4.96 mg/mL) was added. The solution was evaporated to dryness in a rotary evaporator. Final drying was performed in a desiccator to remove residual solvent.
4.5 mg of compound 3 was dispensed into a 25 mL round bottom flask and dissolved in methanol (3 mL). […] of a stock solution of docetaxel in methanol (4.96 mg/mL) was added. The solution was evaporated to dryness in a rotary evaporator. Final drying was performed in a desiccator to remove residual solvent.

[1] abbreviates: docetaxel, ratio 3:1, docetaxel conc. 1 mg/mL.

As for `COc1cc(C)c(/C=C/C(C)=C/C=C/C(C)=C/C(=O)N(CCS(=O)(=O)[O-])C2CCCCC2)c(C)c1C.[Na+]` [Compound 1], the Drug loading capacity is recorded as 25% (cabazitaxel, ratio 3:1, cabazitaxel conc. 0.25 mg/mL); 25% (cabazitaxel, ratio 3:1, cabazitaxel conc. 0.5 mg/mL); 25% (cabazitaxel, ratio 3:1, cabazitaxel conc. 1 mg/mL); 25% (cyclosporin, ratio 3:1, cyclosporin conc. 0.25 mg/mL); 25% (cyclosporin, ratio 3:1, cyclosporin conc. 0.5 mg/mL); 25% (cyclosporin, ratio 3:1, cyclosporin conc. 1 mg/mL). Moreover, the Drug loading capacity is given as 24% (docetaxel 1.2 mg + compound 3.8 mg); 25% under setting [1]; 17% (docetaxel, ratio 5:1, docetaxel conc. 1 mg/mL).

For the molecule `COc1cc(C)c(/C=C/C(C)=C/C=C/C(C)=C/C(=O)N(C)CCS(=O)(=O)[O-])c(C)c1C.[Na+]` [Compound 3], the Drug loading capacity by setting is: (docetaxel, ratio 2:1, docetaxel conc. 0.25 mg/mL) 25%; (docetaxel, ratio 2:1, docetaxel conc. 0.5 mg/mL) 25%; (docetaxel, ratio 2:1, docetaxel conc. 1 mg/mL) 25%; (docetaxel, ratio 3:1, docetaxel conc. 0.25 mg/mL) 25%; (docetaxel, ratio 3:1, docetaxel conc. 0.5 mg/mL) 25%; under setting [1], 25%.
